Measured values reported in ChEMBL document CHEMBL4507324 (2021).

Columns and labels:
Details in all cases: Compound concentration 100.0 nM
[1] = target: Mitogen-activated protein kinase kinase kinase kinase 5 (Homo sapiens) (UniProt Q9Y4K4)
[2] = target: Calcium/calmodulin-dependent protein kinase type 1D (Homo sapiens) (UniProt Q8IU85)
[3] = target: Mitogen-activated protein kinase 1 (Homo sapiens) (UniProt P28482)
[4] = target: Serine/threonine-protein kinase NIM1 (Homo sapiens) (UniProt Q8IY84)
[5] = target: Proto-oncogene tyrosine-protein kinase receptor Ret (Homo sapiens) (UniProt P07949)
[6] = target: Ribosomal protein S6 kinase alpha-6 (Homo sapiens) (UniProt Q9UK32)
[7] = target: Tyrosine-protein kinase receptor UFO (Homo sapiens) (UniProt P30530)
[8] = target: Mast/stem cell growth factor receptor Kit (Homo sapiens) (UniProt P10721)
[9] = target: Serine/threonine-protein kinase MAK (Homo sapiens) (UniProt P20794)
[10] = target: G protein-coupled receptor kinase 4 (Homo sapiens) (UniProt P32298)
[11] = target: Mitogen-activated protein kinase 15 (Homo sapiens) (UniProt Q8TD08)
[12] = tested on: Receptor-type tyrosine-protein kinase FLT3 (Homo sapiens), P36888 [N841I]
[13] = target: Tyrosine-protein kinase Mer (Homo sapiens) (UniProt Q12866)
[14] = target: Homeodomain-interacting protein kinase 2 (Homo sapiens) (UniProt Q9H2X6)
[15] = target: Fibroblast growth factor receptor 2 (Homo sapiens) (UniProt P21802)
[16] = target: Serine/threonine-protein kinase 32C (Homo sapiens) (UniProt Q86UX6)
[17] = target: Macrophage colony-stimulating factor 1 receptor (Homo sapiens) (UniProt P07333)
[18] = target: Leukocyte tyrosine kinase receptor (Homo sapiens) (UniProt P29376)
[19] = target: Tyrosine-protein kinase JAK1 (Homo sapiens) (UniProt P23458)
[20] = tested on: Mast/stem cell growth factor receptor Kit (Homo sapiens), P10721 [A829P]
[21] = target: Cyclin-dependent kinase 13 (Homo sapiens) (UniProt Q14004)
[22] = target: Receptor tyrosine-protein kinase erbB-4 (Homo sapiens) (UniProt Q15303)
[23] = target: cGMP-dependent protein kinase 2 (Homo sapiens) (UniProt Q13237)
[24] = target: Cyclin-G-associated kinase (Homo sapiens) (UniProt O14976)
[25] = target: Serine/threonine-protein kinase Sgk3 (Homo sapiens) (UniProt Q96BR1)
[26] = target: Calcium/calmodulin-dependent protein kinase kinase 1 (Homo sapiens) (UniProt Q8N5S9)
[27] = tested on: Serine/threonine-protein kinase B-raf (Homo sapiens), P15056 [V600E]
[28] = target: Cyclin-dependent kinase-like 2 (Homo sapiens) (UniProt Q92772)
[29] = target: G protein-coupled receptor kinase 3 (Homo sapiens) (UniProt P35626)
[30] = target: Phosphatidylinositol 4,5-bisphosphate 3-kinase catalytic subunit delta isoform (Homo sapiens) (UniProt O00329)
[31] = target: Casein kinase II subunit alpha (Homo sapiens) (UniProt P68400)
[32] = target: Inhibitor of nuclear factor kappa-B kinase subunit alpha (Homo sapiens) (UniProt O15111)
[33] = target: Mitogen-activated protein kinase 10 (Homo sapiens) (UniProt P53779)
[34] = target: Hepatocyte growth factor receptor (Homo sapiens) (UniProt P08581)
[35] = target: Macrophage colony-stimulating factor 1 receptor (Homo sapiens) (UniProt P07333); remark: listed apart in the source
[36] = target: Protein kinase C delta type (Homo sapiens) (UniProt Q05655)
[37] = target: Ephrin type-B receptor 6 (Homo sapiens) (UniProt O15197)
[38] = target: Ephrin type-A receptor 3 (Homo sapiens) (UniProt P29320)
[39] = target: Death-associated protein kinase 3 (Homo sapiens) (UniProt O43293)
[40] = target: Tyrosine-protein kinase Srms (Homo sapiens) (UniProt Q9H3Y6)
[41] = target: Serine/threonine-protein kinase 38-like (Homo sapiens, UniProt Q9Y2H1)
[42] = target: Rho-associated protein kinase 1 (Homo sapiens) (UniProt Q13464)
[43] = target: Cyclin-dependent kinase-like 1 (Homo sapiens) (UniProt Q00532)
[44] = target: Cyclin-dependent kinase 15 (Homo sapiens) (UniProt Q96Q40)
[45] = target: Serine/threonine-protein kinase TAO3 (Homo sapiens) (UniProt Q9H2K8)
[46] = target: Serine/threonine-protein kinase WNK3 (Homo sapiens) (UniProt Q9BYP7)

Macrophage colony-stimulating factor 1 receptor (Homo sapiens), sequence (P07333 whole entry): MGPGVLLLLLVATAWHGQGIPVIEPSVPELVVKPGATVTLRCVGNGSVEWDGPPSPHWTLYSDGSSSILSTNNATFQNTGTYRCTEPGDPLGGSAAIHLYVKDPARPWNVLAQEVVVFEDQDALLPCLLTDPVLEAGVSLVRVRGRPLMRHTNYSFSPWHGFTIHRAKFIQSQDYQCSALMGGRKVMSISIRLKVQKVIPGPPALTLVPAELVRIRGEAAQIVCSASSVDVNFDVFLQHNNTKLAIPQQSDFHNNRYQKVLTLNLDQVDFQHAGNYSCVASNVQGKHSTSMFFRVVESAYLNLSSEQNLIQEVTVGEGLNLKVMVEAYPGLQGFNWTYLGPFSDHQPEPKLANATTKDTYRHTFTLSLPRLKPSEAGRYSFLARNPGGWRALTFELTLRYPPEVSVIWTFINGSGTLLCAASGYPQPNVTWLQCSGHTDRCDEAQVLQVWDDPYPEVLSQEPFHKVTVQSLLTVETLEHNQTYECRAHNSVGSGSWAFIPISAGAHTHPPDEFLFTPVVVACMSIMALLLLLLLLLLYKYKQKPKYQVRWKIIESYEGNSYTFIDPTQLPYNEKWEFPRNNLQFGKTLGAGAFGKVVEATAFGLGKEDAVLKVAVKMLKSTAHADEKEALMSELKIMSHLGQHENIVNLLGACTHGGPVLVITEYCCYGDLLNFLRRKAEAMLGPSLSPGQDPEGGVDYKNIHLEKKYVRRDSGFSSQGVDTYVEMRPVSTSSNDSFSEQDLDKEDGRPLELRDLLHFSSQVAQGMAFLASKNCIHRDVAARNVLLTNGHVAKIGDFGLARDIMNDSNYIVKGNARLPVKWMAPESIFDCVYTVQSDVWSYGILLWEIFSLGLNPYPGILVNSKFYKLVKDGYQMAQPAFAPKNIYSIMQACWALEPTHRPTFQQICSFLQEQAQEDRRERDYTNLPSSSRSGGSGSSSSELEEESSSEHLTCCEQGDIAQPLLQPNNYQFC
Tyrosine-protein kinase Mer (Homo sapiens), sequence (Q12866 whole entry): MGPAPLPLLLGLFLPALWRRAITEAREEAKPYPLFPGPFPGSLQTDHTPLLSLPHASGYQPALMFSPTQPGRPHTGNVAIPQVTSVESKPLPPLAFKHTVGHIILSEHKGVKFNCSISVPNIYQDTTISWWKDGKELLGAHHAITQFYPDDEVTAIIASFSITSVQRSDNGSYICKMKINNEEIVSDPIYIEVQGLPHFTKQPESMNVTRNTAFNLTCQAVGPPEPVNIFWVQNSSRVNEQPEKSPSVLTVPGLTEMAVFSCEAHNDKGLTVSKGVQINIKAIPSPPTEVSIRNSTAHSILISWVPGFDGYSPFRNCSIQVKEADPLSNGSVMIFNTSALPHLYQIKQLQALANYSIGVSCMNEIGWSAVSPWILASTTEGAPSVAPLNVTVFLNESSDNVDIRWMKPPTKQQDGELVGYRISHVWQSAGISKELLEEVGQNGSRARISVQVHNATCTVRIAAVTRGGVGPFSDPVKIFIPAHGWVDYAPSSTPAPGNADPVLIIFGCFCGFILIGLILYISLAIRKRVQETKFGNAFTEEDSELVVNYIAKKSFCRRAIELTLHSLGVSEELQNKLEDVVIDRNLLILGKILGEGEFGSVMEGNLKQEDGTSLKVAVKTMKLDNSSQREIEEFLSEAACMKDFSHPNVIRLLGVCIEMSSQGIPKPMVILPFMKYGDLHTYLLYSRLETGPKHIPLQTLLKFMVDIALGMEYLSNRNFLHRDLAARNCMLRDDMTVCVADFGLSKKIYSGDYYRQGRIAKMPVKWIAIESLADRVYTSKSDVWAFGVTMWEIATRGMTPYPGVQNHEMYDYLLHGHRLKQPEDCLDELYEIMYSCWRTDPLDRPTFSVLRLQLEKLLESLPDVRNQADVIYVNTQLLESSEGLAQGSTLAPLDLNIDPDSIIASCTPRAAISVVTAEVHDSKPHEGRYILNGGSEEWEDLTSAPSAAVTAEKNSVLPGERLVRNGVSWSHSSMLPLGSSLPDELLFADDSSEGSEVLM
Rho-associated protein kinase 1 (Homo sapiens), sequence (Q13464 2-1354 limits assumed): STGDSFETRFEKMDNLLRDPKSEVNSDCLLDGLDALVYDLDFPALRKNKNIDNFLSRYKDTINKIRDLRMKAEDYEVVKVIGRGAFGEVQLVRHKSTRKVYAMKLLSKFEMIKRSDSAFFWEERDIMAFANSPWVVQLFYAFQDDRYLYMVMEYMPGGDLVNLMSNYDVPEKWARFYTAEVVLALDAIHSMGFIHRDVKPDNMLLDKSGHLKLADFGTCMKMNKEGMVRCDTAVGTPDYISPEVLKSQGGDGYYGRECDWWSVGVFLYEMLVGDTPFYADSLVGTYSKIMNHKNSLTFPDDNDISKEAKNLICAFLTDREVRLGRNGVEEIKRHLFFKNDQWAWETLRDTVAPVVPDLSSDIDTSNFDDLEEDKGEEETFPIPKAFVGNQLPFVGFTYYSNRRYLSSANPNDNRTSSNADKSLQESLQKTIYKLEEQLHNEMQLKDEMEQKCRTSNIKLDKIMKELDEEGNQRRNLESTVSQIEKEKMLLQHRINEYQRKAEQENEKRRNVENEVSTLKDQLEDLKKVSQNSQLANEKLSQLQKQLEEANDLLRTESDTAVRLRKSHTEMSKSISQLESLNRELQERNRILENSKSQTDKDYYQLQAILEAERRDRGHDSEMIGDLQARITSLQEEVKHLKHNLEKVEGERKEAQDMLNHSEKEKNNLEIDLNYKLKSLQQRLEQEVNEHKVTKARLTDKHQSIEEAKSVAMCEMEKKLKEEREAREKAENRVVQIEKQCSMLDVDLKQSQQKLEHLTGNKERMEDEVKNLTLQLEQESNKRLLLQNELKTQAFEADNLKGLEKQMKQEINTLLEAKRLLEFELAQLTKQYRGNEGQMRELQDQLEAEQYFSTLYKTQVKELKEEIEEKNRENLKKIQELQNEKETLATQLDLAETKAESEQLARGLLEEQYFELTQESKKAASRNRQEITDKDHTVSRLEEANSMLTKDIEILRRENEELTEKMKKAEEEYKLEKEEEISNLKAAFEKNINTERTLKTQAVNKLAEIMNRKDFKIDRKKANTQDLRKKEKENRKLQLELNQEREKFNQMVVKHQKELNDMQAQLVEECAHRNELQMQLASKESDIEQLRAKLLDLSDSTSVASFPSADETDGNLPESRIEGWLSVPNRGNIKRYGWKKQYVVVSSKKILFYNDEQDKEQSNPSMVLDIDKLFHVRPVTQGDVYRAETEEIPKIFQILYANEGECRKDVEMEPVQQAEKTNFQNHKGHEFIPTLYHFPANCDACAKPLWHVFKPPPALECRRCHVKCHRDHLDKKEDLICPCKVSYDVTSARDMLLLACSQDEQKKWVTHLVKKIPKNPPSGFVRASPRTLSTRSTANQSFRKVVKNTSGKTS
Fibroblast growth factor receptor 2 (Homo sapiens), sequence (P21802 22-821 limits assumed): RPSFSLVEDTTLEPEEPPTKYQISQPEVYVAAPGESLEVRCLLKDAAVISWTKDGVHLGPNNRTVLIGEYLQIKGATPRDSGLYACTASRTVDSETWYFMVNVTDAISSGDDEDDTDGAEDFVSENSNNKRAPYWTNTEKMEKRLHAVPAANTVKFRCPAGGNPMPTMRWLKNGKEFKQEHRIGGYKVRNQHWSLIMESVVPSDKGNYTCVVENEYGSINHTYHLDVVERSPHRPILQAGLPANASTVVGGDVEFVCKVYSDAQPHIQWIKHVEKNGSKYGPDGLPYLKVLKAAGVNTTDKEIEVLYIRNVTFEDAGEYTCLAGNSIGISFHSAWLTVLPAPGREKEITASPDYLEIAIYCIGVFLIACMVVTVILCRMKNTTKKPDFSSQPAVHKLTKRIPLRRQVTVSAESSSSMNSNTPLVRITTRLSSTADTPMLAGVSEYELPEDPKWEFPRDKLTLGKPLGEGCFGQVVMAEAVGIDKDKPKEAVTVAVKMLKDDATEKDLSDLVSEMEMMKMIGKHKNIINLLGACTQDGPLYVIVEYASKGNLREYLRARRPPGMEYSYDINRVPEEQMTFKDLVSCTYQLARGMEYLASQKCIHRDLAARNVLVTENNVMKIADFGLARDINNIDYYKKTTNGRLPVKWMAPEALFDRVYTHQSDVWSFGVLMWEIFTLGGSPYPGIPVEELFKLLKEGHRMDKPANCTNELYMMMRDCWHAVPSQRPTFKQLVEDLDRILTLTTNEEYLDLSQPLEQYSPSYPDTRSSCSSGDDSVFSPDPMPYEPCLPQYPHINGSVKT
Ribosomal protein S6 kinase alpha-6 (Homo sapiens), sequence (Q9UK32 whole entry): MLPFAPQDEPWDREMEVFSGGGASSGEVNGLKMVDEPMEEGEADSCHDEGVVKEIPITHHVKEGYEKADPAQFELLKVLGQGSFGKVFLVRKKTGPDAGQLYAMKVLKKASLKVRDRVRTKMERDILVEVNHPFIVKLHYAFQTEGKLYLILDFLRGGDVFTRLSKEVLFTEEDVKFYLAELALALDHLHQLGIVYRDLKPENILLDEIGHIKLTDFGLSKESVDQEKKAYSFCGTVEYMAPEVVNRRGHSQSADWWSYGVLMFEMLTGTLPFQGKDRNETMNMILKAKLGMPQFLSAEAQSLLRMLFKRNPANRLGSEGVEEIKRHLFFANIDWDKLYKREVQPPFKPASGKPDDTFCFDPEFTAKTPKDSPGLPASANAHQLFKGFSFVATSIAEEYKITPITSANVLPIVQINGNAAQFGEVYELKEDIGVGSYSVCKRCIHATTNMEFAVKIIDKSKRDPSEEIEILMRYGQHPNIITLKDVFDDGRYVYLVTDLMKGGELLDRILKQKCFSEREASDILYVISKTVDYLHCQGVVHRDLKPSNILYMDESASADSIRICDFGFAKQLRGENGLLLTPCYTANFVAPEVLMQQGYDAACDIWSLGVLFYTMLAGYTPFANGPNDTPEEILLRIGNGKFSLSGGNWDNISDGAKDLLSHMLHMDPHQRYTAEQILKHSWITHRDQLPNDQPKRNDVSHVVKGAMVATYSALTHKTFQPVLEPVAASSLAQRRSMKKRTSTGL

## CS(=O)(=O)N1CCCC(NC(=O)[C@H](CCC2CCCCC2)NC(=O)c2ccc(CNc3ncnc4c3nnn4-c3ccccc3)cc2)C1 (some centres not stated) [SR-301]
[1]
  residual activity: 76%
[2]
  residual activity: 97%
[3]
  residual activity: 90%
[4]
  residual activity: 60%
[5]
  residual activity: 87%
[6]
  residual activity: 100%
[7]
  residual activity: 79%
[8]
  residual activity: 100%
[9]
  residual activity: 100%
[10]
  residual activity: 100%
[11]
  residual activity: 100%
[12]
  residual activity: 99%
[13]
  residual activity: 91%
[14]
  residual activity: 100%
[15]
  residual activity: 97%
[16]
  residual activity: 100%
[17]
  residual activity: 100%
[18]
  residual activity: 100%
[19]
  residual activity: 100%
[20]
  residual activity: 100%
[21]
  residual activity: 100%
[22]
  residual activity: 61%
[23]
  residual activity: 79%
[24]
  residual activity: 95%
[25]
  residual activity: 83%
[26]
  residual activity: 88%
[27]
  residual activity: 100%
[28]
  residual activity: 100%
[29]
  residual activity: 100%
[30]
  residual activity: 91%
[31]
  residual activity: 94%
[32]
  residual activity: 100%
[33]
  residual activity: 100%
[34]
  residual activity: 68%
[35]
  residual activity: 100%
[36]
  residual activity: 80%
[37]
  residual activity: 100%
[38]
  residual activity: 75%
[39]
  residual activity: 88%
[40]
  residual activity: 98%
[41]
  residual activity: 24%
[42]
  residual activity: 93%
[43]
  residual activity: 71%
[44]
  residual activity: 74%
[45]
  residual activity: 100%
[46]
  residual activity: 85%

## CS(=O)(=O)N1CCCC(NC(=O)[C@H](CCC2CCCCC2)NC(=O)c2ccc(CNC(=O)c3cnc4ccccn34)cc2)C1 (some centres not stated) [SR-302]
[1]
  residual activity: 100%
[2]
  residual activity: 88%
[3]
  residual activity: 100%
[4]
  residual activity: 64%
[5]
  residual activity: 85%
[6]
  residual activity: 97%
[7]
  residual activity: 96%
[8]
  residual activity: 100%
[9]
  residual activity: 100%
[10]
  residual activity: 100%
[11]
  residual activity: 100%
[12]
  residual activity: 67%
[13]
  residual activity: 94%
[14]
  residual activity: 100%
[15]
  residual activity: 100%
[16]
  residual activity: 85%
[17]
  residual activity: 65%
[18]
  residual activity: 100%
[19]
  residual activity: 64%
[20]
  residual activity: 66%
[21]
  residual activity: 61%
[22]
  residual activity: 95%
[23]
  residual activity: 82%
[24]
  residual activity: 96%
[25]
  residual activity: 74%
[26]
  residual activity: 84%
[27]
  residual activity: 51%
[28]
  residual activity: 85%
[29]
  residual activity: 100%
[30]
  residual activity: 67%
[31]
  residual activity: 100%
[32]
  residual activity: 100%
[33]
  residual activity: 85%
[34]
  residual activity: 62%
[35]
  residual activity: 100%
[36]
  residual activity: 100%
[37]
  residual activity: 98%
[38]
  residual activity: 97%
[39]
  residual activity: 90%
[40]
  residual activity: 71%
[41]
  residual activity: 40%
[42]
  residual activity: 100%
[43]
  residual activity: 91%
[44]
  residual activity: 95%
[45]
  residual activity: 83%
[46]
  residual activity: 85%
